Data as given in patent US20260374739A1, “SMALL MOLECULAR WEIGHT CHEMICAL COMPOUND TO ANTAGONIZE EPH-EPHRIN TETRAMERIZATION AND INHIBIT BIDIRECTIONAL SIGNALING” (THE BOARD OF REGENTS OF THE UNIVERSITY OF TEXAS SYSTEM, priority 2022, published 2026).

How the values were obtained:
[1] = oral bioavailability, IV 3 mg/kg vs PO 30 mg/kg; format: in vivo, mouse; conditions: PBS
Method: A20.2×HCl compound was provided to the UT Southwestern PK Core facility and tested for bioavailability after a single dose when either injected intravenous (IV) at 3 mg/kg or provided by oral gavage (PO) at 30 mg/kg using PBS as vehicle. The data on oral gavage is quite impressive and indicates significant levels of A20 persist, especially in the liver, after a single dose.
To examine the drug-like nature of the disclosed compounds, tests for solubility was conducted.

EphrinB1-EphB1 = biological target: T1, EphrinB1-EphB1 (Homo sapiens, UniProt P54762); test: Octet, immobilized human EphrinB1 binding to human EphB1
T1 sequence (P54762 18-540 limits assumed): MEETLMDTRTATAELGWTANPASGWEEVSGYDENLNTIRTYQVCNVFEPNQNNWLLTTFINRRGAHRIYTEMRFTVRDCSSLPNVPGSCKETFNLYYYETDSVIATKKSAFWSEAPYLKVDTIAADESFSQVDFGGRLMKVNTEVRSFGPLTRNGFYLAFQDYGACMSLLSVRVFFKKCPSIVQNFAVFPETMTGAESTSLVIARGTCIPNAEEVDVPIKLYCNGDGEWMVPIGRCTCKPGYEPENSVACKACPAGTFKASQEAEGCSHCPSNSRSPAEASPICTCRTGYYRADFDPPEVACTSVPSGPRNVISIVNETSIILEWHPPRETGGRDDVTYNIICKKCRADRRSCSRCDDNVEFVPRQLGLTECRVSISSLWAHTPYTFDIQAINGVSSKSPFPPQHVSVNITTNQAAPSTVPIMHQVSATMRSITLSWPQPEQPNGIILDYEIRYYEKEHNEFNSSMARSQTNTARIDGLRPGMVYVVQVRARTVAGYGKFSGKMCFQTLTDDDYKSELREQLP
Method: (§1) Studies were conducted to confirm that A20 chemicals can effectively target the human Eph/Ephrin proteins. Octet system was used to first characterize the biophysical interactions of the human B class Eph and Ephrin proteins, and then was tested to assess how A20 may disrupt the interactions. Since the human and rodent proteins are highly conserved, and essentially identical, with EphB2 sharing 99.5% identity between human and mouse, with only 5 of ~1,000 amino acids different, any species-specific differences were not anticipated. Therefore, commercially available human EphrinB1-Fc (EB1), EphrinB2-Fc (EB2), and EphrinB3-Fc (EB3) ectodomain proteins were sparsely immobilized onto biosensors and then exposed to 50 nM of soluble human EphB1-His, EphB2-His, and EphB4-His ectodomains for 800 sec association and 1,000 sec dissociation steps with a total of nine different interactions analyzed. In the absence of A20 chemical, the immobilized human EphrinB proteins bound to their appropriate human EphB target proteins; with EphrinB1 only bound EphB1 and EphB2, EphrinB2 bound all three EphB1, EphB2, and EphB4, and EphrinB3 only bound EphB1 and EphB2 (FIG. 19A-19B).
Addition of compound also altered dissociation kinetics. […] This is referred to as the “unsurmountable” component of the Eph-Ephrin interaction (FIG. 21C). Additionally, AUC data was graphed for these runs (FIG. 21D). […] For EB2-EphB4, the dimer:tetramer ratio was 83:8 in the presence of A20 and was not much different from the no compound control run because it is already a strong dimer-driven interaction. […] A similar though more muted effect of A20 on tetramer accumulation was also observed for the other interactions of immobilized human EphrinB binding to soluble human EphB1 and EphB2 ectodomains (FIG. 22). The inhibitory effect of A20 is strongest on the EB2-EphB2 interaction with absolute IC50 reaching 1 μM, followed by the EB2-EphB1 interaction with absolute IC50-10 μM. […]

EphrinB3-EphB1 = EphrinB3-EphB1 (Homo sapiens, UniProt P54762); test: Octet, immobilized human EphrinB3 binding to human EphB1
Method: as §1
Addition of compound also altered dissociation kinetics. […] This is referred to as the “unsurmountable” component of the Eph-Ephrin interaction (FIG. 21C). Additionally, AUC data was graphed for these runs (FIG. 21D). […]

EphB2-Fc with EB2-His = biological target: T2, EphB2-Fc with EB2-His (Mus musculus, UniProt P54763); test: Alpha assay EphB2-EB2; format: binding
T2 construct: soluble EphB ectodomains conjugated to Fc from R&D Systems; mouse EB2-His residues 18-232; purchased R&D Systems (EphB-Fc); Sino Biologicals (EphrinB-His)
T2 sequence (P54763 19-543 limits assumed): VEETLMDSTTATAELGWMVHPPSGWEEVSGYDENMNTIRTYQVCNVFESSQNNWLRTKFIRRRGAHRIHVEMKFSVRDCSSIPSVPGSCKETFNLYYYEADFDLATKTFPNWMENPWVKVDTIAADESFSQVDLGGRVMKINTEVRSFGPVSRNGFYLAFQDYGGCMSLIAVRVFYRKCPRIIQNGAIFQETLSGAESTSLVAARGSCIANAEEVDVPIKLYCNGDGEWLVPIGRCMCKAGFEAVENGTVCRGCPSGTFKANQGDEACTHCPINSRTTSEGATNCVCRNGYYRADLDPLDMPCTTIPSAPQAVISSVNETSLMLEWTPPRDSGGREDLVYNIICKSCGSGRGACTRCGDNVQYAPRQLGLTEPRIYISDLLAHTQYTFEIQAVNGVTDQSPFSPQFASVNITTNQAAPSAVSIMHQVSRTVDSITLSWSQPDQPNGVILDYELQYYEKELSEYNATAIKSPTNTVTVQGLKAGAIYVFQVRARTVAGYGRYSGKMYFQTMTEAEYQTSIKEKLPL
Method: FIG. 5D depicts results from an alpha assay using EphB2-Fc or EphB4-Fc with EB2-His and increasing A20 concentrations to calculate IC50 determination (~10 μM, similar to that found in FIG. 5C).
Protein interaction assays were developed using soluble EphB ectodomains conjugated to Fc from R&D Systems (e.g., rat EphB1-Fc residues 18-538, which is 99.4% identical to human) and EphrinB ectodomains conjugated to His from Sino Biologicals (e.g., mouse EB2-His residues 18-232, which is 97.7% identical to human). Titrating concentrations of the EphB1-Fc ectodomain (or unconjugated Fc protein as negative control) was added with titrating amounts of the three different EphrinB ectodomains (EB1-His, EB2-His, or EB3-His) with 125 ng each of the Protein A donor, anti-6×-His acceptor beads, 2% DMSO, and 1× HiBlock buffer (all from PerkinElmer) in 384 well plates, and after 3 hr incubation at RT were read in an Envision Multilabel Reader 2102. […] No signal above background (<1,500) was detected for wells that contained an Fc control protein and the EB-His proteins or just the EphB1-Fc protein and no EB-His protein.
A20, E13, and other compounds from the top 32 hits were then characterized in pulldown assays. […]

[2] = read-out: concentration producing maximum inhibition

Compound | oral bioavailability [1] | reduction of tetramer formation (EphrinB1-EphB1; EB1-EphB1, A20) [%] | antagonism of EphrinB1/EphrinB3 binding (EphrinB1-EphB1; EphB1/EphB2 with EB1 and EB3, species not given) | IC (maximum) (EphrinB1-EphB1; [2]) [µM] | reduction of tetramer formation (EphrinB3-EphB1; EB3-EphB1, A20) [%] | IC (maximum) (EphrinB3-EphB1; [2]) [µM] | IC50 (EphB2-Fc with EB2-His) [µM]
Oc1c(Br)cc(CN2CCOCC2)c2cccnc12 [Compound 6, 4-((7-bromo-8-hydroxyquinolin-1-ium-5-yl)methyl)morpholin-4-ium chloride] | orally bioavailable |  |  |  |  |  | 
Oc1c(Br)cc(CN2CCOCC2)c2cccnc12 [Compound 5, 7-bromo-5-(morpholinomethyl)quinolin-8-ol] |  | 15 | can also antagonize EphB1/EphB2 proteins from binding to EphrinB1 (EB1) and EphrinB3 (EB3) proteins | 1 | 40 | 10 | ~10
